Drawing on patent US20110257171A1, “NOVEL IMIDAZO[1,2-A]PYRIDINE DERIVATIVES, METHOD FOR THE PREPARATION THEREOF, USE THEREOF AS MEDICAMENTS, PHARMACEUTICAL COMPOSITIONS AND NOVEL USE IN PARTICULAR AS MET INHIBITORS” (SANOFI-AVENTIS, priority 2008, published 2011), this text covers melting point and IC50 for twelve compounds.

Usually melting point stands for the temperature, or range, at which the solid turns liquid. In general, IC50 refers to the midpoint of a concentration-inhibition curve.

Counter-ions that a name gives are not always drawn. Some results are limits rather than exact numbers.

Series [1] concerns HCT116 cells and MKN45 cells. Kind of series: Test C: measurement of cell proliferation by 14C-thymidine pulse. The format is cell-based. The following applies: 14C-thymidine incorporation, 96 h of treatment; cell line not given. As to the method:
The cells are seeded into Cytostar 96-well plates in 180 μl for 4 hours at 37° C. and 5% CO2: HCT116 cells in a proportion of 2500 cells per well in DMEM medium+10% foetal calf serum+1% L-glutamine, and MKN45 cells in a proportion of 7500 cells per well in RPMI medium+10% foetal calf serum+1% L-glutamine. After these 4 hours of incubation, the products are added in 10 μl as a […] concentrated solution according to the dilution method mentioned for the ELISA. The products are tested at 10 concentrations in duplicate from 10 000 nM to 0.3 nM with an increment of 3.
After treatment for 72 h, 10 μl of ^14C-thymidine at 10 μCi/ml are added so as to obtain 0.1 μCi per well. The ^14C-thymidine incorporation is measured on a Micro-Beta machine (Perkin-Elmer) after 24 hours of pulse and 96 h of treatment.
All the steps of the assay are automated on BIOMEK 2000 or TECAN stations.
(In general: Uptake of a labelled nucleoside into DNA is a usual measure of proliferation.)

Series [2] deals with T1, MET (Homo sapiens, UniProt P08581). Briefly: Test B: inhibition of the autophosphorylation of MET, ELISA technique (pppY1230, 1234, 1235) in MKN45 cells. The class given is cell-based. Also noted: endogenous in cells; host or cells: MKN45 cells. The following applies: 1 h treatment, phosphoMET ELISA. The method, then: B) Test B: Inhibition of the Autophosphorylation of Met; ELISA Technique (pppY1230, 1234, 1235) a) Cell lysates: MKN45 cells are seeded into 96-well plates (cell coat BD polylysine) at 20 000 cells/well in 200 μl of RPMI medium+10% FCS+1% L-glutamine. They are left to adhere for 24 hours in an incubator.
The cells are treated the day after seeding with the products at 6 concentrations, in duplicate, for 1 h. At least 3 control wells are treated with the same final amount of DMSO.
Product dilution: Stock at 10 mM in pure DMSO—range from 10 mM to 30 μM with an increment of 3 in pure DMSO—intermediate dilutions to 1/50 in culture medium and then removal of 10 μl added directly to the cells (200 μl): final range of 10 000 to 30 nM.
At the end of the incubation, the supernatant is carefully removed and rinsing is performed with 200 μl of PBS. Next, 100 μl of lysis buffer are placed directly in the wells on ice and incubated at 4° C. for 30 minutes. Lysis buffer: 10 mM Tris HCl, pH 7.4, 100 mM NaCl, 1 mM EDTA, 1 mM EGTA, 1% Triton X-100, 10% glycerol, 0.1% SDS, 0.5% deoxycholate, 20 mM NaF, 2 mM Na3VO4, 1 mM PMSF and cocktail of antiproteases.
The 100 μl of lysates are transferred into a V-bottomed polypropylene plate and the ELISA is performed immediately, or the plate is frozen at −80° C.
70 μl of kit dilution buffer+30 μL of cell lysate, or 30 μl of lysis buffer for the blanks, are added to each well of the kit plate. Incubation is carried out for 2 h with gentle agitation at ambient temperature.
The wells are rinsed 4 times with 400 μl of kit washing buffer. Incubation is carried out with 100 μl of anti-phospho MET antibody for 1 hour at ambient temperature.
The wells are rinsed 4 times with 400 μl of kit washing buffer. Incubation is carried out with 100 μl of anti-rabbit HRP antibody for 30 minutes at ambient temperature (except for the wells of chromogen alone).
The wells are rinsed 4 times with 400 μl of kit washing buffer. 100 μL of chromogen are introduced and incubation is carried out for 30 minutes in the dark at ambient temperature.
The reaction is stopped with 100 μl of stop solution. The plate is read without delay at […], 0.1 second on a Wallac Victor plate reader.
Target sequence in this assay (P08581 25-1390): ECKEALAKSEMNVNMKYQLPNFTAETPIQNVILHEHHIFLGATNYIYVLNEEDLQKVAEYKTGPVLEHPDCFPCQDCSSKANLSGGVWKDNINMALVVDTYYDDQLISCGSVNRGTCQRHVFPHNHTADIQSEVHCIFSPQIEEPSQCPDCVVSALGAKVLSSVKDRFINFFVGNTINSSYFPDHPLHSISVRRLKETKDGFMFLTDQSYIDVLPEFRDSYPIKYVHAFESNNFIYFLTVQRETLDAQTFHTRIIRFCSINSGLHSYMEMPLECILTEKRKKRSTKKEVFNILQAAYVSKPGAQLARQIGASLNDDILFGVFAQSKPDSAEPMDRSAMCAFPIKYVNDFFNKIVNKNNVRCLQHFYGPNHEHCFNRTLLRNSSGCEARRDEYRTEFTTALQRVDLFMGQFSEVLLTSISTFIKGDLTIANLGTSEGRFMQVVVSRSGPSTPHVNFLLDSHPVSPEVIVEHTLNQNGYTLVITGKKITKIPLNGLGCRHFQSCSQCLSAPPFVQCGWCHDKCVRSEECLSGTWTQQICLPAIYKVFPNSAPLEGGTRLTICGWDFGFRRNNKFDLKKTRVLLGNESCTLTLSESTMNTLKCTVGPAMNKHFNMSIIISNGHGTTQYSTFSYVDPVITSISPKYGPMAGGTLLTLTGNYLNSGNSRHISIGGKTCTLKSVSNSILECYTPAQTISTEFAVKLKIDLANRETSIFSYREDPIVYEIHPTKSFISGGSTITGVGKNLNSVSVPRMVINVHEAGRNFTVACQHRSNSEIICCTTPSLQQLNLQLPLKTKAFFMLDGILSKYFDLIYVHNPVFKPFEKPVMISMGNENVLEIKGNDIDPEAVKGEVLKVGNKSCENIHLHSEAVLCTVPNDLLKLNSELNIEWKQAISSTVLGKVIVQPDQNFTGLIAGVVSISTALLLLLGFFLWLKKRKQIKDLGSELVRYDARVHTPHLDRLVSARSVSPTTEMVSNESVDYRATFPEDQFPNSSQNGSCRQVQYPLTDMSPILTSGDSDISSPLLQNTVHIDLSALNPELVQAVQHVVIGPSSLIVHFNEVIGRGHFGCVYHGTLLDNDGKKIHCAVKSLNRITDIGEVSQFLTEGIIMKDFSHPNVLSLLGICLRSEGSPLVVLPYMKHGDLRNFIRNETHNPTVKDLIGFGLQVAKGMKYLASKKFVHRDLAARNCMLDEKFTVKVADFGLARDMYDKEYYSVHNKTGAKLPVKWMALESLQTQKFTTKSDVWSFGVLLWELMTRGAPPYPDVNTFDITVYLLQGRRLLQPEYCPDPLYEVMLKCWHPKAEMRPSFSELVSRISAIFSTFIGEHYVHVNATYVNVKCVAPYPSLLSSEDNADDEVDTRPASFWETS
On the technique in general: In an ELISA, binding on a coated surface is turned into a signal by an enzyme label.

Series [3] concerns the target T1, MET. Briefly: Test A: HTRF MET assay in 96-well format. The class given is biochemical. The following applies: MET 5 nM, 10 μM ATP. Also noted: The His-Tev-MET (956-1390) recombinant DNA in pFastBac (Invitrogen) is transfected into insect cells; His (N, cleaved yes); Tev cleavage site (N); made in house; host or cells: SF21 insect cells (baculovirus, pFastBac). The method, then: The His-Tev-MET (956-1390) recombinant DNA in pFastBac (Invitrogen) is transfected into insect cells and, after several viral amplification steps, the final baculovirus stock is tested for the expression of the protein of interest.
After infection for 72 h at 27° C. with the recombinant virus, SF21 cell cultures are harvested by centrifugation and the cell pellets are stored at −80° C.
The cell pellets are resuspended in the lysis buffer (buffer A [50 mM HEPES, pH 7.5, 250 mM NaCl, 10% glycerol, 1 mM TECP]; +cocktail of protease inhibitors, Roche Diagnostics, without EDTA, ref 1873580), stirred at 4° C. until the mixture is homogeneous, and then lysed mechanically using a “Dounce” type apparatus.
After centrifugation, the lysis supernatant is incubated for 2 h at 4° C. with nickel chelate resin (His-Trap 6 Fast Flow™, GE HealthCare). After washing with 20 volumes of buffer A, the suspension is packed into a column, and the proteins are eluted with a gradient of buffer B (buffer A+290 mM imidazole).
The fractions containing the protein of interest, for the purpose of electrophoretic analysis (SDS PAGE), are combined, concentrated by ultrafiltration (10 kDa cut-off) and injected onto an exclusion chromatography column (Superdex® 200, GE HealthCare) equilibrated in buffer A.
After enzymatic cleavage of the histidine tag, the protein is reinjected onto a new IMAC nickel chelate chromatography column (His-Trap 6 Fast Flow™ GE HealthCare) equilibrated in buffer A. The fractions eluted with a gradient of buffer B and containing the protein of interest after electrophoresis (SDS PAGE) are finally combined and stored at −80° C.
For the production of autophosphorylated protein, the previous fractions are incubated for 1 h at ambient temperature after the addition of 2 mM ATP, 2 mM MgCl2 and 4 mM Na3VO4. After the reaction has been stopped with 5 mM of EDTA, the reaction mixture is injected onto a HiPrep desalifying column (GE HealthCare) pre-equilibrated in buffer A+4 mM Na3VO4, and the fractions containing the protein of interest (SDS PAGE analysis) are combined and stored at −80° C. The degree of phosphorylation is verified by mass spectrometry (LC-MS) and by peptide mapping.
MET at a final concentration of 5 nM is incubated in a final volume of 50 μl of enzymatic reaction in the presence of the test molecule (for a final concentration range of from 0.17 nM to 10 μM, 3% DMSO final concentration) in 10 mM MOPS buffer, pH 7.4, 1 mM DTT, 0.01% Tween 20. The reaction is initiated with the substrate solution to obtain final concentrations of 1 μg/ml poly-(GAT), 10 μM ATP and 5 mM MgCl2. After incubation for 10 min at ambient temperature, the reaction is stopped with a 30 μl mix so as to obtain a final solution of 50 mM Hepes, pH 7.5, 500 mM potassium fluoride, 0.1% BSA and 133 mM EDTA in the presence of 80 ng of streptavidin 61 SAXLB Cis-Bio Int. and 18 ng of anti-phosphotyrosine Mab PT66-Europium Cryptate per well. After incubation for 2 hours at ambient temperature, the reading is taken at 2 wavelengths, 620 nm and 665 nm, on a reader for the TRACE/HTRF technique, and the % inhibition is calculated from the 665/620 ratios.
Target sequence in this assay (P08581 956-1390): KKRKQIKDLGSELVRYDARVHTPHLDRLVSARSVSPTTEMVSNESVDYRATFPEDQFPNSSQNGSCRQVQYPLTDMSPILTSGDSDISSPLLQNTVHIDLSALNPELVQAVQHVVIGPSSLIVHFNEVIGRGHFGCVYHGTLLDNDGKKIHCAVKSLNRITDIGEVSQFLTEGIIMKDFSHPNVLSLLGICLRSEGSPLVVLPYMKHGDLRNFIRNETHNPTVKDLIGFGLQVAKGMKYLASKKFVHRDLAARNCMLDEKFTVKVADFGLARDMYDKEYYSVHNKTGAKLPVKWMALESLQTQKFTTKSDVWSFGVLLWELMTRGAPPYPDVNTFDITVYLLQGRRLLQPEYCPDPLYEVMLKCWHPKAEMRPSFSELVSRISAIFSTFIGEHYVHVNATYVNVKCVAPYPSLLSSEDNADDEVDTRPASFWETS
(In general: TR-FRET usually uses a lanthanide donor and a delayed reading to cut background.)

Regarding `O=C(Nc1nc2ccc(Sc3cnc4ccc(-c5cnn(C6CCNCC6)c5)cn34)cc2s1)C1CC1` (as salt: hydrochloride) [Example 12, N-[6-({6-[1-(piperidin-4-yl)1H-pyrazol-4-yl]imidazo[1,2-a]pyridin-3-yl}sulphanyl)-1,3-benzothiazol-2-yl]cyclopropanecarboxamide], the melting point was 230 °C.
For `O=C(Nc1nc2ccc(Sc3cnc4ccccn34)cc2s1)C1CC1` [Example 1, N-{[6-(imidazo[1,2-a]pyridin-3-yl)sulphanyl]-1,3-benzothiazol-2-yl}cyclopropanecarboxamide], the figures for the IC50 (in series [1]; against MET [2]; at MET [3]) were less than 1000 nM, less than 100 nM and less than 100 nM, respectively.
`Nc1nc2ccc(Sc3cnc4ccc(-c5ccc(F)cc5)cn34)cc2s1` [Example 2, 6-{[6-(4-fluorophenyl)imidazo[1,2-a]pyridin-3-yl]sulphanyl}-1,3-benzothiazol-2-amine] returned a melting point of 258 °C. This compound also registered an IC50 in series [1] of less than 1000 nM. The 50% inhibitory concentration (IC50) on MET [2] is greater than 500 nM. Moreover, the IC50 at MET [3] was less than 100 nM.
Taken in the same sequence, the figures for `O=C(Nc1nc2ccc(Sc3cnc4ccc(-c5ccc(F)cc5)cn34)cc2s1)C1CC1` [Example 3, N-(6-{[6-(4-fluorophenyl)imidazo[1,2-a]pyridin-3-yl]sulphanyl}-1,3-benzothiazol-2-yl)cyclopropanecarboxamide] were 265 °C, less than 1000 nM, less than 100 nM and less than 100 nM.
In the case of `CC(=O)Nc1nc2ccc(Sc3cnc4ccc(-c5ccc(F)cc5)cn34)cc2s1` [Example 4, N-(6-{[6-(4-fluorophenyl)imidazo[1,2-a]pyridin-3-yl]sulphanyl}-1,3-benzothiazol-2-yl)acetamide], the IC50 in series [1] is less than 1000 nM; on MET [2], less than 100 nM; at MET [3] it was less than 100 nM.
The compound `COCCNC(=O)Nc1nc2ccc(Sc3cnc4ccc(-c5ccc(F)cc5)cn34)cc2s1` [Example 5, 1-(6-{[6-(4-fluorophenyl)imidazo[1,2-a]pyridin-3-yl]sulphanyl}-1,3-benzothiazol-2-yl)-3-(2-methoxyethyl)urea] registered a melting point greater than 260 °C. The IC50 in series [1] was less than 1000 nM. For the same compound, the half-inhibitory concentration (IC50) against MET [2] is less than 100 nM. Further, the concentration for half-maximal inhibition (IC50) on MET [3] is less than 100 nM.
For `O=C(NCCN1CCOCC1)Nc1nc2ccc(Sc3cnc4ccc(-c5ccc(F)cc5)cn34)cc2s1` [Example 6, 1-(6-{[6-(4-fluorophenyl)imidazo[1,2-a]pyridin-3-yl]sulphanyl}-1,3-benzothiazol-2-yl)-3-[2-(morpholin-4-yl)ethyl]urea], the results for the half-inhibitory concentration (IC50) (in series [1]; on MET [2]; on MET [3]) were less than 1000 nM, less than 100 nM and less than 100 nM, respectively.
Consider `Cn1cc(-c2ccc3ncc(Sc4ccc5nc(NC(=O)C6CC6)sc5c4)n3c2)cn1` [Example 7, N-(6-{[6-(1-methyl-1H-pyrazol-4-yl)imidazo[1,2-a]pyridin-3-yl]sulphanyl}-1,3-benzothiazol-2-yl)cyclopropanecarboxamide], for which the values for the IC50 (in series [1]; against MET [2]; at MET [3]) were less than 1000 nM, less than 100 nM and less than 100 nM, respectively.
Consider `O=C(Nc1nc2ccc(Sc3cnc4ccc(-c5cn[nH]c5)cn34)cc2s1)C1CC1` [Example 8, N-(6-{[6-(1H-pyrazol-4-yl)imidazo[1,2-a]pyridin-3-yl]sulphanyl}-1,3-benzothiazol-2-yl)cyclopropanecarboxamide], for which the results for the half-inhibitory concentration (IC50) (in series [1]; against MET [2]; on MET [3]) were less than 1000 nM, less than 100 nM and less than 100 nM, respectively.
`O=C(Nc1nc2ccc(Sc3cnc4ccc(-c5cccc(F)c5)cn34)cc2s1)C1CC1` [Example 9, N-(6-{[6-(3-fluorophenyl)imidazo[1,2-a]pyridin-3-yl]sulphanyl}-1,3-benzothiazol-2-yl)cyclopropanecarboxamide]: the melting point was greater than 260 °C. This compound also yielded an IC50 in series [1] of less than 1000 nM. This compound also gave an IC50 against MET [2] of less than 100 nM. For the same compound, the IC50 on MET [3] is less than 100 nM.
Regarding `Cc1ccc(-c2ccc3ncc(Sc4ccc5nc(NC(=O)C6CC6)sc5c4)n3c2)cc1F` [Example 10, N-(6-{[6-((3-fluoro-4-methyl)phenyl)imidazo[1,2-a]pyridin-3-yl]sulphanyl}-1,3-benzothiazol-2-yl)cyclopropanecarboxamide], the melting point is greater than 260 °C. This compound returned a concentration for half-maximal inhibition (IC50) in series [1] of less than 1000 nM. On MET [2], this compound came in with an IC50 of less than 100 nM. For the same compound, the concentration for half-maximal inhibition (IC50) on MET [3] is less than 100 nM.
As for `O=C(Nc1nc2ccc(Sc3cnc4ccc(-c5cnn(C6CCNCC6)c5)cn34)cc2s1)C1CC1` [Example 12, N-[6-({6-[1-(piperidin-4-yl)1H-pyrazol-4-yl]imidazo[1,2-a]pyridin-3-yl}sulphanyl)-1,3-benzothiazol-2-yl]cyclopropanecarboxamide], the IC50 is less than 1000 nM in series [1], less than 100 nM against MET [2] and less than 100 nM on MET [3].
